Results reported in the OligoGym collection.
After the bases stand the sugars from the 5' end (letter, count) and the backbone: PS all phosphorothioate, else s phosphorothioate and o phosphodiester by linkage. Methylation of C is not given here. e = 2'-O-(2-methoxyethyl) (MOE); k = constrained ethyl (cEt); d = 2'-deoxy (DNA); m = 2'-O-methyl

Target: HSD17B13
Settings: ASO, HepaRG

Sequence | target mRNA inhibition (1 µM) | also measured
GTATTAAGACAGTTGA (sugars k3 d10 k3, PS) | 45% | 
GTATTCCATCTATCAG (sugars kkdddddddddkekek, PS) | 48% | 
GTATTTCGCTACTGTA (sugars k3 d10 k3, PS) | 76% | target mRNA inhibition (0.02 µM): 0%; target mRNA inhibition (0.078 µM): 0%; target mRNA inhibition (0.313 µM): 24%; target mRNA inhibition (1.25 µM): 64%; target mRNA inhibition (5 µM): 86%
GTCAAAAACCGTCAAA (sugars k3 d10 k3, PS) | 39% | 
GTCACCTTTCATAATG (sugars kkdddddddddkekek, PS) | 4% | 
GTCCAGAAGTATGTGA (sugars k3 d10 k3, PS) | 9% | 
GTCCAGGTTGAGATAA (sugars k3 d10 k3, PS) | 60% | 
GTCCTAGGATGTTGAC (sugars k3 d10 k3, PS) | 1% | 
GTCCTTGTGTAGTCCT (sugars k3 d10 k3, PS) | 62% | 
GTCGGTCACCTTTCAT (sugars k3 d1 m1 d8 k3, PS) | 66% | 
GTCGGTCACCTTTCAT (sugars k3 d10 k3, PS) | 85% | target mRNA inhibition (0.02 µM): 16%; target mRNA inhibition (0.078 µM): 37%; target mRNA inhibition (0.313 µM): 57%; target mRNA inhibition (1.25 µM): 82%; target mRNA inhibition (5 µM): 90%
GTCTAAACATCTCTGG (sugars k3 d9 k3 e1, PS) | 49% | 
GTCTAAACATCTCTGG (sugars kkdddddddddkekek, PS) | 50% | 
GTCTACCTCTAAGTTA (sugars k3 d9 k3 e1, PS) | 41% | 
GTCTUAAACCTTCCCT (sugars k3 d1 m1 d8 k3, PS) | 35% | 
GTGACATAACTACTTC (sugars k3 d10 k3, PS) | 68% | 
GTGATTGAGTTCTCCA (sugars k3 d10 k3, PS) | 80% | target mRNA inhibition (0.02 µM): 10%; target mRNA inhibition (0.078 µM): 14%; target mRNA inhibition (0.313 µM): 32%; target mRNA inhibition (1.25 µM): 73%; target mRNA inhibition (5 µM): 83%
GTGCATCTTAAGATAC (sugars kkdddddddddkekek, PS) | 20% | 
GTGCCAAACCAATGTT (sugars kkdddddddddkekek, PS) | 38% | 
GTGCTTTTGTGATCCA (sugars k3 d10 k3, PS) | 62% | 
GTGGCATGGCTACAGA (sugars k3 d9 k3 e1, PS) | 38% | 
GTGGCCATGATTTCTC (sugars k3 d10 k3, PS) | 40% | 
GTGGCCGCACACTGAA (sugars k3 d10 k3, PS) | 41% | 

Sequence | target mRNA inhibition (1 µM) | also measured
GTGTTAGCTTTAATTT (sugars k3 d10 k3, PS) | 48% | 
GTGTTCTTGTTGATAT (sugars k3 d9 k3 e1, PS) | 66% | 
GTGTTTACAAGTAAGA (sugars k3 d10 k3, PS) | 79% | 
GTGTUCTTGTTGATAT (sugars k3 d1 m1 d8 k3, PS) | 52% | 
GTTACATTACAGCCTT (sugars k3 d10 k3, PS) | 71% | target mRNA inhibition (0.02 µM): 0%; target mRNA inhibition (0.078 µM): 18%; target mRNA inhibition (0.313 µM): 50%; target mRNA inhibition (1.25 µM): 73%; target mRNA inhibition (5 µM): 86%
GTTATACAGAAGACAG (sugars k3 d10 k3, PS) | 54% | 
GTTATTAGAAGTCAGC (sugars k3 d10 k3, PS) | 56% | 
GTTATTCTCTTGACAA (sugars kkdddddddddkekek, PS) | 27% | 
GTTCAACTGAACCTCT (sugars k3 d10 k3, PS) | 55% | 
GTTCTTGTTGATATTC (sugars k3 d9 k3 e1, PS) | 69% | 
GTTGAGATAAAGCTGC (sugars k3 d9 k3 e1, PS) | 59% | 
GTTGAGATAAAGCTGC (sugars k3 d10 k3, PS) | 54% | 
GTTGCACCGTTTTGGG (sugars k3 d1 m1 d8 k3, PS) | 38% | 
GTTTACTCACTTCTGG (sugars k3 d10 k3, PS) | 29% | 
GTTTAGCTGATAGGCT (sugars k3 d10 k3, PS) | 47% | 
GTTTCAACTAAACATG (sugars k3 d10 k3, PS) | 65% | 
GTTTCCTCCACACCGC (sugars k3 d10 k3, PS) | 45% | 
GTTTCTAGGTCAGTAG (sugars k3 d10 k3, PS) | 73% | 
GTTTCTTATGTAATAG (sugars k3 d10 k3, PS) | 46% | 
GTTTCTTATGTAATAG (sugars kkdddddddddkekek, PS) | 21% | 
GTTTCTTATGTAATAG (sugars kkkddddkddddkkke, PS) | 44% | 
GTTTGACTGCTGCTAG (sugars k3 d10 k3, PS) | 58% | 
GTTTTCGGCACTCAGC (sugars k3 d10 k3, PS) | 51% | 

Sequence | target mRNA inhibition (1 µM) | also measured
GTTTTTAAGAGGCATG (sugars k3 d10 k3, PS) | 63% | 
GTTTTTAAGAGGCATG (sugars kkdddddddddkekek, PS) | 79% | target mRNA inhibition (0.02 µM): 15%; target mRNA inhibition (0.078 µM): 13%; target mRNA inhibition (0.313 µM): 12%; target mRNA inhibition (1.25 µM): 61%; target mRNA inhibition (5 µM): 71%
GTTTTTTGAACCGTAT (sugars k3 d10 k3, PS) | 71% | target mRNA inhibition (0.02 µM): 0%; target mRNA inhibition (0.078 µM): 0%; target mRNA inhibition (0.313 µM): 9%; target mRNA inhibition (1.25 µM): 56%; target mRNA inhibition (5 µM): 74%
GTTTUGGGCTAATGAA (sugars k3 d1 m1 d8 k3, PS) | 30% | 
TAAAAATTGGCCTCCT (sugars k3 d10 k3, PS) | 29% | 
TAAAATAGAGTCGGTC (sugars k3 d10 k3, PS) | 81% | target mRNA inhibition (0.02 µM): 1%; target mRNA inhibition (0.078 µM): 9%; target mRNA inhibition (0.313 µM): 47%; target mRNA inhibition (1.25 µM): 80%; target mRNA inhibition (5 µM): 90%
TAAACATCTCTGGGAC (sugars k3 d10 k3, PS) | 51% | 
TAAACCTTCCCTGTGT (sugars kkdddddddddkekek, PS) | 9% | 
TAAATTACTCCGTTCT (sugars k3 d10 k3, PS) | 36% | 
TAACATTCGGCTAGGC (sugars k3 d10 k3, PS) | 52% | 
TAACTCTATTGATTGG (sugars k3 d10 k3, PS) | 51% | 
TAAGAGGCATGAAAGG (sugars k3 d1 m1 d8 k3, PS) | 50% | 
TAAGAGTCAGTATCCT (sugars k3 d10 k3, PS) | 52% | 
TAAGATACCCAGGTTG (sugars kkdddddddddkekek, PS) | 30% | 
TAAGCAGAATTGTGAA (sugars k3 d10 k3, PS) | 35% | 
TAAGGAGTAGTGGAGC (sugars k3 d10 k3, PS) | 18% | 
TAAGGCAAAGATCTGG (sugars k3 d10 k3, PS) | 46% | 
TAAGTTACCAGAGCAT (sugars k3 d10 k3, PS) | 77% | target mRNA inhibition (0.02 µM): 0%; target mRNA inhibition (0.078 µM): 0%; target mRNA inhibition (0.313 µM): 30%; target mRNA inhibition (1.25 µM): 71%; target mRNA inhibition (5 µM): 91%
TAATACATTAGCAAGC (sugars k3 d10 k3, PS) | 33% | 
TAATACATTAGCAAGC (sugars kkdddddddddkekek, PS) | 34% | 
TAATAGCCAGTACAGT (sugars k3 d10 k3, PS) | 64% | 
TAATCACAAGTAAGGT (sugars k3 d10 k3, PS) | 54% | 
TAATGAATCATGATTG (sugars k3 d10 k3, PS) | 2% | 

Sequence | target mRNA inhibition (1 µM) | also measured
TAATTGCATCTGCTCG (sugars k3 d10 k3, PS) | 46% | 
TAATTTTCAGATCCCG (sugars k3 d10 k3, PS) | 75% | target mRNA inhibition (0.02 µM): 0%; target mRNA inhibition (0.078 µM): 9%; target mRNA inhibition (0.313 µM): 41%; target mRNA inhibition (1.25 µM): 62%; target mRNA inhibition (5 µM): 89%
TAATTTTCGGGTTCTT (sugars k3 d10 k3, PS) | 40% | 
TACAACCTGGTTTCAT (sugars k3 d10 k3, PS) | 25% | 
TACAGATTGGAATGCT (sugars k3 d9 k3 e1, PS) | 66% | 
TACAGGCCATAATCTT (sugars k3 d10 k3, PS) | 16% | 
TACATTAGCAAGCTAA (sugars k3 d10 k3, PS) | 29% | 
TACCAGAGCATTCATC (sugars k3 d10 k3, PS) | 55% | 
TACCTCTAAGTTAGCC (sugars k3 d10 k3, PS) | 28% | 
TACCTTATTAATATCC (sugars k3 d10 k3, PS) | 54% | 
TACTGTCCCAGCATTA (sugars k3 d10 k3, PS) | 21% | 
TACTTGAACAGTCTTA (sugars k3 d9 k3 e1, PS) | 65% | 
TACTTGAACAGTCTTA (sugars k3 d10 k3, PS) | 48% | 
TAGAATACGCTGAGAG (sugars k3 d10 k3, PS) | 47% | 
TAGAATAGTCTTCAGC (sugars k3 d10 k3, PS) | 70% | target mRNA inhibition (0.02 µM): 0%; target mRNA inhibition (0.078 µM): 0%; target mRNA inhibition (0.313 µM): 16%; target mRNA inhibition (1.25 µM): 52%; target mRNA inhibition (5 µM): 77%
TAGAGGGTCCACTTTT (sugars k3 d10 k3, PS) | 36% | 
TAGAGTCGGTCACCTT (sugars k3 d10 k3, PS) | 65% | 
TAGAGTGAATCATTCA (sugars k3 d10 k3, PS) | 75% | target mRNA inhibition (0.02 µM): 16%; target mRNA inhibition (0.078 µM): 33%; target mRNA inhibition (0.313 µM): 60%; target mRNA inhibition (1.25 µM): 84%; target mRNA inhibition (5 µM): 92%
TAGCAAAACACTTGCT (sugars k3 d10 k3, PS) | 21% | 
TAGCAAGCCAACAGAG (sugars k3 d10 k3, PS) | 21% | 
TAGCAATTTAGCAAGA (sugars k3 d10 k3, PS) | 54% | 
TAGCTAAGGGAGAGTG (sugars k3 d10 k3, PS) | 9% | 
